The subject of data set [1] is clonogenic cells of the small intestine (crypts). As to the kind of experiment: Small intestine crypt survival after 13Gy X-irradiation in BDF1 mice. The class given is in vivo. An excerpt: Radiation exposure may damage or kill cells. Therefore, stem and clonogenic cells of the small intestine were exposed to radiation, treated and monitored to observe the effectiveness of the treatment. There are thought to be between four and sixteen actual stem cells in each crypt of the small intestine. There are also a further reserve of clonogneic cells which are capable of regenerating the crypt when all the actual stem cells have been killed. The survival of these clonogenic cells is therefore key to the survival of the crypt and the restoration of an intact epithelial lining following cytotoxic injury (only one clonogenic cell need survive to ensure the survival of the crypt, and therefore maintenance of an intact epithelium). Growth factors and related molecules can be used to manipulate the sensitivity of these cells to cytotoxic agents, and thereby reduce the severity of gastrointestinal and oral mucositis. Factors given prior to a cytotoxic insult may increase clonogenic cell number (thereby increasing the probability of clonogen survival) or act to arrest the cell cycle in such cells (thereby making them more resistant to damage or death). […] A combination of both protocols could give maximum protection to the epithelium.
36 adult male BDF1 mice (aged 10-12 weeks) were used. The animals were divided into 6 groups and were treated as follows: (1) Control mice, (2) Irradiated, untreated mice, (3) Mice receiving 3 mg/kg thymosin ip 3 hrs prior to irradiation, (4) Mice receiving vehicle ip 3 hrs prior to irradiation, (5) Mice receiving 3 mg/kg thymosin ip 3 times daily for 3 days prior to irradiation, (6) Mice receiving vehicle ip 3 times daily for 3 days prior to irradiation.
The injections were given at 9:00 (3 times treatment) or 12:00 (1 time treatment). At 3:00 on day 3, intestinal damage was induced using a single dose of 13Gy (Gray) X-irradiation.
4 days after irradiation the animals were culled. The small intestine was removed and fixed in Carnoy's fixative prior to processing for histological analysis. 3 um sections were cut and stained with haematoxylin and eosin. Surviving crypts with one or more clonogenic cells are clearly visible in the irradiated sections. […]
For each animal ten intestinal circumferences were analyzed (60 per group). […] The number of surviving crypts per circumference were scored and the average per group determined. Only crypts containing 10 or more strongly H&E stained cells (excluding Paneth cells) and only intact circumference not containing Peyers patches were scored (Peyers patches influence both the number of crypts in a normal circumference and the ability of a crypt to survive insult).
The average crypt width (measured at its widest point) was also measured in order to correct for scoring errors due to crypt size difference. […]

The conditions of data set [2]: subcutaneously injected; cited from earlier work.

The source of these data is patent publication US7897567B2, “Methods of protecting against radiation damage using alpha thymosin” (SciClone Pharmaceuticals, Inc., priority 2002, dated 2011).

Ends that are not written are not given here.

In the case of “Thymosin alpha 1 (SDAAVDTSSEITTKDLKEKKEVVEEAEN; not fully specified (N-terminus); UniProt P06454 2-29, looked up) [28-amino acid thymic peptide with immunomodulatory properties, homologous to a natural product isolated from thymosin fraction 5 of calf thymus]”, the “survival of treatment and adverse effects” value in data set [1] (3 mg/kg ip, single or triple dose, BDF1 mice, 13Gy X-irradiation) is listed as “no obvious adverse effects”. For the same substance, in data set [1] (triple dose thymosin vs triple dose vehicle control), the “increase in surviving crypts” value came out at 77%. The protection factor in data set [1] (triple dose thymosin vs triple dose vehicle control (5.3 vs 3)) was determined as 1.77. Besides, the “corrected crypt survival (corrected number of crypts/circumference)” value in data set [1] (triple dose: 3 mg/kg ip 3 times daily for 3 days prior to 13Gy X-irradiation, BDF1 mice, 4 days after irradiation) turned out to be 5.3 crypts/circumference. In data set [2], the plasma half-life entry is reported as “about two”.
